The values below come from patent US11214803B2, “Modulators of YAP1 expression” (Ionis Pharmaceuticals, Inc., priority 2019, dated 2022).

Strand notation (5' to 3'): a small letter for the sugar, then the base; units joined by * are phosphorothioate-linked, units joined directly phosphodiester-linked; [ ] holds rarer units or linkages, { } end groups; capitals alone tell only the bases. k = constrained ethyl (cEt); [5mC] = 5-methylcytosine; d = 2'-deoxy (DNA)

For one data set, the system named is Yap1 mRNA. The data set is described as follows: Antisense inhibition of human Yap1 in A-431 cells by cEt gapmers, single dose (Example 3, RTS36584). The format is cell-based. The conditions noted are these: Table 9; A-431 cells, 5,000 cells per well, free uptake, 2,000 nM, approximately 48 hours; RTS36584; normalized to RIBOGREEN; Yap1 mRNA relative to untreated control cells. In short, it runs like this:
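Free uptake, 2,000 nM, ~48 h, A-431 cells. Gapmers: 16-mer 3-10-3 cEt wings, PS backbone, 5-MeC. Readout qRT-PCR, RiboGreen-normalized, % UTC.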
On to “958701 (antisense kT*kT*kA*dA*dA*d[5mC]*dT*dA*dG*dG*d[5mC]*dA*d[5mC]*kA*kT*kT) [Compound 958701]”, for which the “YAP1 (% UTC)” value is listed as 98 % UTC. The same measure, in the same setting: for “958706 (antisense kT*k[5mC]*kG*d[5mC]*dA*dT*dG*dG*d[5mC]*d[5mC]*dA*d[5mC]*dT*kG*k[5mC]*k[5mC]) [Compound 958706]” the value was 112 % UTC; for “958711 (antisense k[5mC]*k[5mC]*kA*dA*dA*dT*dA*dA*dG*dG*dA*dT*d[5mC]*kT*kG*kT) [Compound 958711]”, 34 % UTC.

Take “958716 (antisense kA*kT*kG*dG*dA*d[5mC]*dT*dG*dT*dA*dT*dG*d[5mC]*kA*kG*k[5mC]) [Compound 958716]”: the “YAP1 (% UTC)” value stood at 84 % UTC. As for “958721 (antisense kG*kT*kA*dG*dT*dA*dT*dA*dA*dT*dG*dA*dG*kT*kT*kA) [Compound 958721]”, the “YAP1 (% UTC)” value worked out at 1 % UTC. The same measure, in the same setting: for “958726 (antisense k[5mC]*kT*kG*dT*d[5mC]*dA*dG*dT*dT*dA*dT*d[5mC]*d[5mC]*kT*kA*kT) [Compound 958726]” the value was 3 % UTC; for “958731 (antisense kG*k[5mC]*kT*d[5mC]*dT*dG*dT*d[5mC]*dA*dG*dT*dT*dA*kT*k[5mC]*k[5mC]) [Compound 958731]”, 7 % UTC. Same read-out and setting: as for “958736 (antisense kG*kT*kG*dA*dT*dA*dT*dG*dG*dA*dT*dT*d[5mC]*kT*kG*kT) [Compound 958736]”, the figure is 3 % UTC.

The data set is the same for the next values; noted with them: Table 10; A-431 cells, 5,000 cells per well, free uptake, 2,000 nM oligonucleotide, approx. 48 hours; primer probe set RTS36584; Yap1 mRNA normalized to RIBOGREEN, percent of untreated control.
In the case of “958702 (antisense kT*kG*kA*dT*dG*dT*d[5mC]*dT*dT*dG*dT*d[5mC]*d[5mC]*kA*kG*kA) [Compound 958702]”, the “YAP1 (% UTC)” value is recorded as 16 % UTC. For “958707 (antisense kT*k[5mC]*kA*dA*dT*dG*d[5mC]*dT*dG*dT*dA*dT*d[5mC]*kA*kG*kA) [Compound 958707]”, the “YAP1 (% UTC)” value came out at 23 % UTC. On the same count and under the same terms, for “958712 (antisense kT*kT*kA*dT*dA*dT*dA*dG*dG*dT*dT*dA*d[5mC]*kA*kG*kA) [Compound 958712]” the value was 52 % UTC; for “958717 (antisense kA*kA*kT*dA*dA*dT*dA*dT*dA*dG*d[5mC]*dT*dT*kA*k[5mC]*kG) [Compound 958717]”, 11 % UTC; for “958722 (antisense k[5mC]*kA*kT*dA*dA*dT*dA*dG*dG*dA*d[5mC]*dA*d[5mC]*kA*kA*k[5mC]) [Compound 958722]”, 59 % UTC.

On to “958727 (antisense kA*kT*k[5mC]*dT*dG*dT*d[5mC]*dA*dG*dT*dT*dA*dT*k[5mC]*k[5mC]*kT) [Compound 958727]”, for which the “YAP1 (% UTC)” value is recorded as 2 % UTC. On the same count and under the same terms, as for “958732 (antisense kA*kG*k[5mC]*dA*d[5mC]*dG*dG*dT*dG*dT*dA*dG*d[5mC]*kT*kT*kT) [Compound 958732]”, the figure is 60 % UTC; as for “958737 (antisense kG*kG*kA*dA*dT*dA*d[5mC]*dA*dA*dG*d[5mC]*d[5mC]*d[5mC]*kG*kA*kG) [Compound 958737]”, 8 % UTC.

The same data set, now with this note: Table 11; A-431 cells, 5,000 cells per well, free uptake, 2,000 nM oligonucleotide, approx. 48 hours; primer probe set RTS36584; Yap1 mRNA normalized to RIBOGREEN, percent of untreated control.
As for “958703 (antisense kG*kA*kT*dA*dA*d[5mC]*dT*dA*dA*dG*d[5mC]*dA*d[5mC]*kT*kA*k[5mC]) [Compound 958703]”, the “YAP1 (% UTC)” value is 49 % UTC.

As for “958708 (antisense kA*kT*kG*dT*d[5mC]*dA*dG*dA*dT*dG*dT*d[5mC]*dA*kA*kT*kT) [Compound 958708]”, the “YAP1 (% UTC)” value was determined as 19 % UTC. In the case of “958713 (antisense kT*kG*k[5mC]*dT*dA*dG*dA*dG*dG*d[5mC]*dT*dG*dT*kT*k[5mC]*k[5mC]) [Compound 958713]”, the “YAP1 (% UTC)” value was 55 % UTC. The same measure, in the same setting: for “958718 (antisense kG*kA*kA*d[5mC]*dA*d[5mC]*dT*dA*dT*dA*dG*d[5mC]*dT*kT*kG*kG) [Compound 958718]” the value was 4 % UTC; for “958723 (antisense kA*kA*k[5mC]*d[5mC]*d[5mC]*dA*d[5mC]*dT*dA*dA*dA*dA*d[5mC]*k[5mC]*kG*kG) [Compound 958723]”, 63 % UTC. Turning to “958728 (antisense kT*kA*kT*d[5mC]*dT*dG*dT*d[5mC]*dA*dG*dT*dT*dA*kT*k[5mC]*k[5mC]) [Compound 958728]”, the “YAP1 (% UTC)” value is recorded as 10 % UTC. On the same count and under the same terms, for “958733 (antisense kT*kA*kA*dT*dA*dG*dA*d[5mC]*dT*dA*dG*dA*d[5mC]*kT*kT*kA) [Compound 958733]” the value was 67 % UTC.

The same data set, now with this note: Table 12; A-431 cells, 5,000 cells per well, free uptake, 2,000 nM modified oligonucleotide, approx. 48 hours; RTS36584; normalized to RIBOGREEN; Yap1 mRNA relative to untreated control cells.
In the case of “958704 (antisense k[5mC]*k[5mC]*k[5mC]*dT*dA*d[5mC]*dA*d[5mC]*dT*d[5mC]*dG*dA*dG*kG*kA*kT) [Compound 958704]”, the “YAP1 (% UTC)” value amounted to 122 % UTC. Same read-out and setting: as for “958709 (antisense kT*k[5mC]*kA*dA*dT*d[5mC]*dT*dA*dT*dG*dA*dG*dA*k[5mC]*k[5mC]*k[5mC]) [Compound 958709]”, the figure is 57 % UTC; as for “958714 (antisense kG*kA*kG*d[5mC]*dA*d[5mC]*dT*dG*d[5mC]*dG*d[5mC]*d[5mC]*d[5mC]*kT*kG*kG) [Compound 958714]”, 82 % UTC.

Turning to “958719 (antisense kG*kT*kA*d[5mC]*dA*dT*dA*dA*dT*dG*dG*dG*d[5mC]*kT*kA*kA) [Compound 958719]”, the “YAP1 (% UTC)” value worked out at 49 % UTC. The same measure, in the same setting: as for “958724 (antisense kT*k[5mC]*kA*dG*dT*dT*dA*dT*d[5mC]*d[5mC]*dT*dA*dT*k[5mC]*k[5mC]*k[5mC]) [Compound 958724]”, the figure is 2 % UTC; as for “958729 (antisense kG*kT*k[5mC]*dA*dG*dT*dT*dA*dT*d[5mC]*d[5mC]*dT*dA*kT*k[5mC]*kT) [Compound 958729]”, 4 % UTC.

Consider “958734 (antisense kA*k[5mC]*kA*d[5mC]*dA*dT*dA*dG*dA*dG*d[5mC]*dT*dA*kA*kG*kG) [Compound 958734]”, for which the “YAP1 (% UTC)” value amounted to 7 % UTC.

Staying with this data set, now noted: Table 13; A-431 cells, 5,000 cells per well, free uptake, 2,000 nM modified oligonucleotide, approx. 48 hours; RTS36584; normalized to RIBOGREEN; Yap1 mRNA relative to untreated control cells.
Regarding “958705 (antisense kG*kG*k[5mC]*d[5mC]*dA*dT*d[5mC]*dA*dA*dT*dA*dA*dA*kG*kA*k[5mC]) [Compound 958705]”, the “YAP1 (% UTC)” value stood at 112 % UTC.

In the case of “958710 (antisense kA*kG*kG*dG*dA*dA*d[5mC]*d[5mC]*d[5mC]*dT*dT*dG*dG*k[5mC]*kT*kA) [Compound 958710]”, the “YAP1 (% UTC)” value stood at 77 % UTC.

Take “958715 (antisense kG*kT*kA*dA*dT*dA*dG*dG*dA*dG*dG*dT*dA*kA*kG*kA) [Compound 958715]”: the “YAP1 (% UTC)” value amounted to 48 % UTC. The same measure, in the same setting: as for “958720 (antisense kG*kT*k[5mC]*dT*dA*d[5mC]*dT*dA*dG*dA*dG*d[5mC]*dT*kG*k[5mC]*k[5mC]) [Compound 958720]”, the figure is 12 % UTC; as for “958725 (antisense kG*kT*k[5mC]*dA*dG*dT*dT*dA*dT*d[5mC]*d[5mC]*dT*dA*kT*k[5mC]*k[5mC]) [Compound 958725]”, 1 % UTC.

Regarding “958730 (antisense k[5mC]*kT*k[5mC]*dT*dG*dT*d[5mC]*dA*dG*dT*dT*dA*dT*k[5mC]*k[5mC]*kT) [Compound 958730]”, the “YAP1 (% UTC)” value worked out at 4 % UTC. Consider “958735 (antisense kA*kG*k[5mC]*dA*dA*dT*d[5mC]*dT*dT*dG*dT*dG*dG*kA*kT*k[5mC]) [Compound 958735]”, for which the “YAP1 (% UTC)” value was 7 % UTC.
